According to ChEMBL document CHEMBL1135518 (J Med Chem, 2002):

Experiments:
[1] = biological target: 5-hydroxytryptamine receptor 2A (Rattus norvegicus, UniProt P14842); experiment: The binding affinity at 5-hydroxytryptamine 2A receptor was determined using [3H]ketanserin
[2] = biological target: Sodium-dependent serotonin transporter (Rattus norvegicus, UniProt P31652); experiment: The binding affinity at the 5-HT reuptake sites determined using competition binding assay
[3] = biological target: T1, Adrenergic receptor alpha-1 (Rattus norvegicus, UniProt P15823+P23944+P43140); experiment: The binding affinity at Alpha-1 adrenergic receptor determined using [3H]prazosin; format: protein assay
T1 sequence (P15823 whole entry): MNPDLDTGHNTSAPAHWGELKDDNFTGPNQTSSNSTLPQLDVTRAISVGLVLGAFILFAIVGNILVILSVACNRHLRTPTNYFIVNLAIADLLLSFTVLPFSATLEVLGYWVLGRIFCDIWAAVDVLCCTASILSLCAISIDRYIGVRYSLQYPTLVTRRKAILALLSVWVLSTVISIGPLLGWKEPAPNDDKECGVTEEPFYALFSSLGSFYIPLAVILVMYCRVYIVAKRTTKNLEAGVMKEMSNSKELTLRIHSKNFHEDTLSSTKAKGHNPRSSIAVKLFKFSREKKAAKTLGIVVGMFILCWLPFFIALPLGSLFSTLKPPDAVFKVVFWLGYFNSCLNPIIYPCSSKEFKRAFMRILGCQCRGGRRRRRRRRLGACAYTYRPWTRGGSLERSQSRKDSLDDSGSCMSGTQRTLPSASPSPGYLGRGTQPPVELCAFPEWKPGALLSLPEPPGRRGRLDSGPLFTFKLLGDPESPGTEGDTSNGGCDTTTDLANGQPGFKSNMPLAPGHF
T1 sequence (P23944 whole entry): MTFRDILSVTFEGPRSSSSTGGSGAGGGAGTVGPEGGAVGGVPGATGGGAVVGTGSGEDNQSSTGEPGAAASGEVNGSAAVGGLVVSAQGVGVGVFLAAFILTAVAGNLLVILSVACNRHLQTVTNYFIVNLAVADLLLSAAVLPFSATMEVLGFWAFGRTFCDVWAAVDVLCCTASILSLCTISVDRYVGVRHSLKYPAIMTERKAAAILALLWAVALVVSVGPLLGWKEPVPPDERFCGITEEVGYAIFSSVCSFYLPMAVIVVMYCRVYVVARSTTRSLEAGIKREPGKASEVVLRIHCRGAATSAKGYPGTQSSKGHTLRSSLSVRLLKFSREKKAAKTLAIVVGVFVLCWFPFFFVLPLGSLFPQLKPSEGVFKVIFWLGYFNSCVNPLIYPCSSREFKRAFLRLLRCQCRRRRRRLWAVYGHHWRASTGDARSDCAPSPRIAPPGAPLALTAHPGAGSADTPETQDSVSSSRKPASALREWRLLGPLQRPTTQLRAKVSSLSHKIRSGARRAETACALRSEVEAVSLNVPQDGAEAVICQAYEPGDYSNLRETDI
T1 sequence (P43140 whole entry): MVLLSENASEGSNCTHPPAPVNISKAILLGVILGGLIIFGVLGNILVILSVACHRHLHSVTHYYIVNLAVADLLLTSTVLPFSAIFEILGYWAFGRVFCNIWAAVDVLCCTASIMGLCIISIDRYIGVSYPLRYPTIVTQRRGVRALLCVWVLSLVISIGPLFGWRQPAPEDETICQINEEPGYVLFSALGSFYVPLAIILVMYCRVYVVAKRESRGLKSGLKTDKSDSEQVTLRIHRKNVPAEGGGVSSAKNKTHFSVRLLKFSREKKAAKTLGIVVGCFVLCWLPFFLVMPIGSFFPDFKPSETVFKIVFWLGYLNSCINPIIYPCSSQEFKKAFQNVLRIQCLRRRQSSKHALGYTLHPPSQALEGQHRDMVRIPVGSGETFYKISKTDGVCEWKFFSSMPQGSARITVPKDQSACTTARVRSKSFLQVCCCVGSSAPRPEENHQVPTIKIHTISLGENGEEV

D(4) dopamine receptor = biological target: T2, D(4) dopamine receptor (Homo sapiens, UniProt P21917); experiment: The binding affinity at the Dopamine receptor D4 determined using [3H]YM-09151-2
T2 sequence (P21917 whole entry): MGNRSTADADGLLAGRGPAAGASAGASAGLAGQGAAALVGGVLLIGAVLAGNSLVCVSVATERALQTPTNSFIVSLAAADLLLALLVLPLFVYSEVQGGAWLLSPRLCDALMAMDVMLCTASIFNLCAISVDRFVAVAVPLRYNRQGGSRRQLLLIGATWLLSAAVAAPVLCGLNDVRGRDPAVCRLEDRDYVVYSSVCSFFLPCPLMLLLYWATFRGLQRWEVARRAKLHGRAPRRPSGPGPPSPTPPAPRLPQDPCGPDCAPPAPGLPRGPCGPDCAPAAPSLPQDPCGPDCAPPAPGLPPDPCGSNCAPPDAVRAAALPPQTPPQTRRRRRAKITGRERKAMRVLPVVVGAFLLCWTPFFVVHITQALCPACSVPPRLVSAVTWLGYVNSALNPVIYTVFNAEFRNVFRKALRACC

[4] = biological target: T3, Serotonin 3 (5-HT3) receptor (Rattus norvegicus, UniProt P35563+Q9JJ16); experiment: The binding affinity at 5-hydroxytryptamine 3 receptor was determined using [3H]LY-278584; format: protein-complex assay
T3 sequence (P35563 whole entry): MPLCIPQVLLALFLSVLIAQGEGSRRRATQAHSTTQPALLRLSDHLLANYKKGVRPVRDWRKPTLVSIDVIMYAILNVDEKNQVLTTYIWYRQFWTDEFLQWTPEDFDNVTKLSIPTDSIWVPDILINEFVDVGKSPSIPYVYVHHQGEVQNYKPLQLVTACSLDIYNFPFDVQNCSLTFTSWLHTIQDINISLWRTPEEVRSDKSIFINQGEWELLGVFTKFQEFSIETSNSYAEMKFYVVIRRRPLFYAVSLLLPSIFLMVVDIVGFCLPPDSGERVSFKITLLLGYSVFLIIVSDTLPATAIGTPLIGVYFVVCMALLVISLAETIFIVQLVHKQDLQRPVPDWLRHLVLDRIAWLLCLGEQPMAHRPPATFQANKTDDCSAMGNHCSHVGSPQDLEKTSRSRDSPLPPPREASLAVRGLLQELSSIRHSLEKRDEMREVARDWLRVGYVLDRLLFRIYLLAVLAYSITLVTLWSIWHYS
T3 sequence (Q9JJ16 whole entry): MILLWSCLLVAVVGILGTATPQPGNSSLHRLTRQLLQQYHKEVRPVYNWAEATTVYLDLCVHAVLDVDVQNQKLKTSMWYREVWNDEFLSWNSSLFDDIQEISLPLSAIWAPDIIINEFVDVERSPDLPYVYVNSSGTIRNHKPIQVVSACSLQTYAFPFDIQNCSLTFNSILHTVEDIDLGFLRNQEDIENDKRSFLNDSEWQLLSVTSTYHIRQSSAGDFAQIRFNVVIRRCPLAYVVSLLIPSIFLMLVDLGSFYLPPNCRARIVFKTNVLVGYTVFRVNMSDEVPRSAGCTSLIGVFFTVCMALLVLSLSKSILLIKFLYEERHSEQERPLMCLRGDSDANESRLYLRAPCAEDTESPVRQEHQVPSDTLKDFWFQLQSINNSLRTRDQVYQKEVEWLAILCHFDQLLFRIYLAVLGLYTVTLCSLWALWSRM

Chain of 5-hydroxytryptamine receptor 2A (P14842 whole entry): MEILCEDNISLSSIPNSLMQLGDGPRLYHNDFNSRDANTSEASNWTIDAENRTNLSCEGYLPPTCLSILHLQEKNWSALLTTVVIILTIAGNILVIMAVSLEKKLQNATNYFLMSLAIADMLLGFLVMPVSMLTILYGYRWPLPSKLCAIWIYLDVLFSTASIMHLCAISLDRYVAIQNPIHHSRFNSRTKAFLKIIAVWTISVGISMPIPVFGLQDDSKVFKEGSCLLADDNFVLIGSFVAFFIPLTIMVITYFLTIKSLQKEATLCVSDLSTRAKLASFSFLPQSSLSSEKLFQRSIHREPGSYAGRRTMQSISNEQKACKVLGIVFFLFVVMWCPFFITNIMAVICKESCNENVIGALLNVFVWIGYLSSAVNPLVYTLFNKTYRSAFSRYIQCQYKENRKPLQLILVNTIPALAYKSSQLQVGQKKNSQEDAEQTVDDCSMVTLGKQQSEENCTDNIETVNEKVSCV
Chain of Sodium-dependent serotonin transporter (P31652 whole entry): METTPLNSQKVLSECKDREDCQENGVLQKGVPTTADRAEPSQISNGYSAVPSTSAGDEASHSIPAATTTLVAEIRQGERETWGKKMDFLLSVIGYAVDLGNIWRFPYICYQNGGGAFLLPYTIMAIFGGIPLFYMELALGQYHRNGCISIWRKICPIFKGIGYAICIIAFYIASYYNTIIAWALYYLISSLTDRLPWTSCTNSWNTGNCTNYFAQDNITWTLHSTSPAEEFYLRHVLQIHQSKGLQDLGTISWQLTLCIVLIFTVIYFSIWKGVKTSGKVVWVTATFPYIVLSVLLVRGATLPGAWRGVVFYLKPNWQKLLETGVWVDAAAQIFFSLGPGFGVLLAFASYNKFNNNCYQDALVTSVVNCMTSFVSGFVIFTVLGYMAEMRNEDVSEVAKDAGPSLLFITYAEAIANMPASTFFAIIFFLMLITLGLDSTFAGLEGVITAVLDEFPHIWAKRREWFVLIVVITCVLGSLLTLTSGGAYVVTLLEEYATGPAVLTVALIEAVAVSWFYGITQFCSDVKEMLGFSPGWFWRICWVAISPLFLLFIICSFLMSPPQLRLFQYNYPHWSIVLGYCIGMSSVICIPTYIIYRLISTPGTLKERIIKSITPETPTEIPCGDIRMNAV

Structure (SMILES)	IC50 [1]	IC50 [2]	Ki [3]	Ki (D(4) dopamine receptor)	Ki [4]
COc1cccc2c1N1CCN(C)C[C@H]1c1ccccc1C2	0.75 nM	> 10000 nM	74 nM	47 nM	1650 nM
COc1cccc2c1N1CCN(C)CC1c1ccccc1C2 (racemic)	0.7 nM	2900 nM	84 nM	92 nM	2900 nM
COc1cccc2c1N1CCN(C)C[C@@H]1c1ccccc1C2	0.55 nM	1650 nM	205 nM	160 nM	> 5000 nM
